Assay results taken from PubChem BioAssay (NCI).
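96-well plates; 48 h exposure; 5 concentrations. Endpoints by linear interpolation between flanking doses. Not reached: highest tested concentration assigned. TGI marks complete inhibition of growth.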

Assays:
Test in all cases: growth of human tumour cells (NCI), 48 h
SK-MEL-5 melanoma = system: SK-MEL-5 melanoma
HOP-92 NSCLC = system: HOP-92 NSCLC
SF-268 CNS = system: SF-268 CNS
M14 melanoma = system: M14 melanoma
PC-3 prostate = system: PC-3 prostate
MCF7 breast = system: MCF7 breast
NCI-H522 lung = system: NCI-H522 lung
CAKI-1 renal = system: CAKI-1 renal
MDA-MB-231 breast = system: MDA-MB-231 breast
IGROV1 ovarian = system: IGROV1 ovarian
OVCAR-4 ovarian = system: OVCAR-4 ovarian
U251 CNS = system: U251 CNS
HOP-62 NSCLC = system: HOP-62 NSCLC
RPMI-8226 leukemia = system: RPMI-8226 leukemia
MOLT-4 leukemia = system: MOLT-4 leukemia
SN12C renal = system: SN12C renal
MDA-MB-435 = system: MDA-MB-435
UACC-257 melanoma = system: UACC-257 melanoma
SK-MEL-28 melanoma = system: SK-MEL-28 melanoma
EKVX NSCLC = system: EKVX NSCLC
ACHN renal = system: ACHN renal
SNB-19 CNS = system: SNB-19 CNS
SW-620 colon = system: SW-620 colon
DU-145 prostate = system: DU-145 prostate
NCI-H460 lung = system: NCI-H460 lung
COLO 205 colon = system: COLO 205 colon
786-0 renal = system: 786-0 renal
NCI-H226 lung = system: NCI-H226 lung
CCRF-CEM leukemia = system: CCRF-CEM leukemia
MALME-3M melanoma = system: MALME-3M melanoma
SF-295 CNS = system: SF-295 CNS
OVCAR-3 ovarian = system: OVCAR-3 ovarian
MDA-N = system: MDA-N
SK-MEL-2 melanoma = system: SK-MEL-2 melanoma
LOX IMVI melanoma = system: LOX IMVI melanoma
UACC-62 melanoma = system: UACC-62 melanoma
RXF 393 renal = system: RXF 393 renal
NCI-H23 lung = system: NCI-H23 lung
HCT-15 colon = system: HCT-15 colon
UO-31 renal = system: UO-31 renal
K-562 leukemia = system: K-562 leukemia
KM12 colon = system: KM12 colon
HT29 colon = system: HT29 colon
OVCAR-5 ovarian = system: OVCAR-5 ovarian
BT-549 breast = system: BT-549 breast
SF-539 CNS = system: SF-539 CNS
OVCAR-8 ovarian = system: OVCAR-8 ovarian
HCT-116 colon = system: HCT-116 colon
HS 578T breast = system: HS 578T breast
HCC-2998 colon = system: HCC-2998 colon
SNB-75 CNS = system: SNB-75 CNS
HL-60(TB) leukemia = system: HL-60(TB) leukemia
A498 renal = system: A498 renal
T-47D breast = system: T-47D breast
A549 NSCLC = system: A549 NSCLC
SR leukemia = system: SR leukemia
NCI/ADR-RES ovarian = system: NCI/ADR-RES ovarian
KM20L2 colon = system: KM20L2 colon
DMS 273 small cell lung = system: DMS 273 small cell lung
M19-MEL melanoma = system: M19-MEL melanoma
TK-10 renal = system: TK-10 renal
SNB-78 CNS = system: SNB-78 CNS
SK-OV-3 ovarian = system: SK-OV-3 ovarian
DMS 114 small cell lung = system: DMS 114 small cell lung

Work on `C=CCOc1ccc2c(C)cc(=O)oc2c1C` yielded a TGI (SK-MEL-5 melanoma) greater than 100 µM, a TGI (HOP-92 NSCLC) greater than 100 µM and a TGI (SF-268 CNS) greater than 100 µM. For the same compound, the TGI (M14 melanoma) was greater than 100 µM, the TGI (PC-3 prostate) was greater than 100 µM and the TGI (MCF7 breast) was greater than 100 µM. It also gave a TGI (NCI-H522 lung) of 81.4 µM, a TGI (CAKI-1 renal) greater than 100 µM and a TGI (MDA-MB-231 breast) greater than 100 µM. The TGI (IGROV1 ovarian) was greater than 100 µM, the TGI (OVCAR-4 ovarian) was greater than 100 µM and the TGI (U251 CNS) was greater than 100 µM. For the same compound, the TGI (HOP-62 NSCLC) was greater than 100 µM, the TGI (RPMI-8226 leukemia) was greater than 100 µM and the TGI (MOLT-4 leukemia) was greater than 100 µM. The TGI (SN12C renal) was greater than 100 µM, the TGI (MDA-MB-435) was greater than 100 µM and the TGI (UACC-257 melanoma) was greater than 100 µM. For the same compound, the TGI (SK-MEL-28 melanoma) was greater than 100 µM, the TGI (EKVX NSCLC) was greater than 100 µM and the TGI (ACHN renal) was greater than 100 µM. It also gave a TGI (SNB-19 CNS) greater than 100 µM, a TGI (SW-620 colon) greater than 100 µM and a TGI (DU-145 prostate) greater than 100 µM. It also gave a TGI (NCI-H460 lung) greater than 100 µM, a TGI (COLO 205 colon) greater than 100 µM and a TGI (786-0 renal) greater than 100 µM. It also gave a TGI (NCI-H226 lung) greater than 100 µM, a TGI (CCRF-CEM leukemia) greater than 100 µM and a TGI (MALME-3M melanoma) greater than 100 µM. It also gave a TGI (SF-295 CNS) of 58.5 µM, a TGI (OVCAR-3 ovarian) greater than 100 µM and a TGI (MDA-N) greater than 100 µM. The TGI (SK-MEL-2 melanoma) was greater than 100 µM, the TGI (LOX IMVI melanoma) was greater than 100 µM and the TGI (UACC-62 melanoma) was greater than 100 µM. The TGI (RXF 393 renal) was 63.9 µM, the TGI (NCI-H23 lung) was greater than 100 µM and the TGI (HCT-15 colon) was greater than 100 µM. It also gave a TGI (UO-31 renal) greater than 100 µM, a TGI (K-562 leukemia) greater than 100 µM and a TGI (KM12 colon) greater than 100 µM. The TGI (HT29 colon) was greater than 100 µM, the TGI (OVCAR-5 ovarian) was greater than 100 µM and the TGI (BT-549 breast) was greater than 100 µM. The TGI (SF-539 CNS) was greater than 100 µM, the TGI (OVCAR-8 ovarian) was greater than 100 µM and the TGI (HCT-116 colon) was greater than 100 µM. The TGI (HS 578T breast) was 77.1 µM, the TGI (HCC-2998 colon) was greater than 100 µM and the TGI (SNB-75 CNS) was greater than 100 µM. For the same compound, the TGI (HL-60(TB) leukemia) was greater than 100 µM, the TGI (A498 renal) was greater than 100 µM and the TGI (T-47D breast) was greater than 100 µM. It also gave a TGI (A549 NSCLC) greater than 100 µM, a TGI (SR leukemia) greater than 100 µM and a TGI (NCI/ADR-RES ovarian) greater than 100 µM.
`CN(C)C(=S)N=C(Nc1ccccc1)Nc1ccccc1` gave a TGI (SK-MEL-5 melanoma) greater than 100 µM, a TGI (HOP-92 NSCLC) greater than 100 µM and a TGI (SF-268 CNS) greater than 100 µM. It also gave a TGI (M14 melanoma) greater than 100 µM, a TGI (KM20L2 colon) greater than 100 µM and a TGI (NCI-H522 lung) greater than 100 µM. The TGI (CAKI-1 renal) was greater than 100 µM, the TGI (IGROV1 ovarian) was greater than 100 µM and the TGI (OVCAR-4 ovarian) was greater than 100 µM. The TGI (U251 CNS) was greater than 100 µM, the TGI (HOP-62 NSCLC) was greater than 100 µM and the TGI (RPMI-8226 leukemia) was greater than 100 µM. It also gave a TGI (MOLT-4 leukemia) greater than 100 µM, a TGI (SN12C renal) greater than 100 µM and a TGI (UACC-257 melanoma) greater than 100 µM. It also gave a TGI (SK-MEL-28 melanoma) greater than 100 µM, a TGI (EKVX NSCLC) greater than 100 µM and a TGI (ACHN renal) greater than 100 µM. The TGI (SNB-19 CNS) was greater than 100 µM, the TGI (SW-620 colon) was greater than 100 µM and the TGI (NCI-H460 lung) was greater than 100 µM. It also gave a TGI (COLO 205 colon) greater than 100 µM, a TGI (DMS 273 small cell lung) greater than 100 µM and a TGI (786-0 renal) greater than 100 µM. The TGI (NCI-H226 lung) was greater than 100 µM, the TGI (CCRF-CEM leukemia) was greater than 100 µM and the TGI (M19-MEL melanoma) was greater than 100 µM. For the same compound, the TGI (MALME-3M melanoma) was greater than 100 µM, the TGI (SF-295 CNS) was greater than 100 µM and the TGI (OVCAR-3 ovarian) was greater than 100 µM. It also gave a TGI (TK-10 renal) greater than 100 µM, a TGI (SK-MEL-2 melanoma) greater than 100 µM and a TGI (LOX IMVI melanoma) greater than 100 µM. The TGI (UACC-62 melanoma) was greater than 100 µM, the TGI (RXF 393 renal) was greater than 100 µM and the TGI (NCI-H23 lung) was greater than 100 µM. The TGI (HCT-15 colon) was greater than 100 µM, the TGI (UO-31 renal) was greater than 100 µM and the TGI (K-562 leukemia) was greater than 100 µM. It also gave a TGI (KM12 colon) greater than 100 µM, a TGI (HT29 colon) greater than 100 µM and a TGI (OVCAR-5 ovarian) greater than 100 µM. The TGI (SF-539 CNS) was greater than 100 µM, the TGI (OVCAR-8 ovarian) was greater than 100 µM and the TGI (HCT-116 colon) was greater than 100 µM. For the same compound, the TGI (HCC-2998 colon) was greater than 100 µM, the TGI (SNB-75 CNS) was greater than 100 µM and the TGI (HL-60(TB) leukemia) was greater than 100 µM. It also gave a TGI (SNB-78 CNS) greater than 100 µM, a TGI (SK-OV-3 ovarian) greater than 100 µM and a TGI (A498 renal) greater than 100 µM. The TGI (A549 NSCLC) was greater than 100 µM, the TGI (SR leukemia) was greater than 100 µM and the TGI (DMS 114 small cell lung) was greater than 100 µM.
`O=[N+]([O-])c1ccc2c(c1)/C(=N/N=C1c3ccccc3Cc3ccccc31)c1cc([N+](=O)[O-])cc([N+](=O)[O-])c1-2` was tested, and the TGI (SK-MEL-5 melanoma) was 15 µM, the TGI (HOP-92 NSCLC) was 8.61 µM and the TGI (SF-268 CNS) was 5.81 µM. It also gave a TGI (M14 melanoma) of 6.28 µM, a TGI (PC-3 prostate) of 10.2 µM and a TGI (MCF7 breast) of 3.64 µM. It also gave a TGI (NCI-H522 lung) of 3.25 µM, a TGI (CAKI-1 renal) of 9.36 µM and a TGI (MDA-MB-231 breast) of 6.42 µM. The TGI (IGROV1 ovarian) was 3.04 µM, the TGI (OVCAR-4 ovarian) was 3.13 µM and the TGI (U251 CNS) was 10.7 µM. For the same compound, the TGI (HOP-62 NSCLC) was 7.01 µM, the TGI (RPMI-8226 leukemia) was greater than 100 µM and the TGI (MOLT-4 leukemia) was 5.99 µM. For the same compound, the TGI (SN12C renal) was 3.23 µM, the TGI (MDA-MB-435) was 3.38 µM and the TGI (UACC-257 melanoma) was 4.38 µM. The TGI (SK-MEL-28 melanoma) was 9.05 µM, the TGI (EKVX NSCLC) was 12.3 µM and the TGI (ACHN renal) was 8.79 µM. It also gave a TGI (SNB-19 CNS) of 23.3 µM, a TGI (SW-620 colon) of 9.38 µM and a TGI (DU-145 prostate) of 13.7 µM. For the same compound, the TGI (NCI-H460 lung) was 14.1 µM, the TGI (COLO 205 colon) was 9.9 µM and the TGI (786-0 renal) was 3.41 µM. The TGI (NCI-H226 lung) was 31.5 µM, the TGI (CCRF-CEM leukemia) was 5.55 µM and the TGI (MALME-3M melanoma) was 6.46 µM. The TGI (SF-295 CNS) was 3.7 µM, the TGI (OVCAR-3 ovarian) was 3.11 µM and the TGI (TK-10 renal) was 11.5 µM. The TGI (MDA-N) was 9.38 µM, the TGI (SK-MEL-2 melanoma) was 24.8 µM and the TGI (LOX IMVI melanoma) was 4.6 µM. It also gave a TGI (UACC-62 melanoma) of 6.46 µM, a TGI (RXF 393 renal) of 8.59 µM and a TGI (NCI-H23 lung) of 3.85 µM. For the same compound, the TGI (HCT-15 colon) was 4.99 µM, the TGI (UO-31 renal) was 4.41 µM and the TGI (K-562 leukemia) was 9.41 µM. The TGI (KM12 colon) was 6.34 µM, the TGI (HT29 colon) was 4.07 µM and the TGI (OVCAR-5 ovarian) was 6 µM. It also gave a TGI (BT-549 breast) of 2.87 µM, a TGI (SF-539 CNS) of 7.21 µM and a TGI (OVCAR-8 ovarian) of 3.24 µM. For the same compound, the TGI (HCT-116 colon) was 3.08 µM, the TGI (HS 578T breast) was 6.81 µM and the TGI (HCC-2998 colon) was 12.8 µM. For the same compound, the TGI (SNB-75 CNS) was 9.28 µM, the TGI (HL-60(TB) leukemia) was greater than 22.8 µM and the TGI (SK-OV-3 ovarian) was 27.3 µM. It also gave a TGI (A498 renal) of 18.2 µM, a TGI (T-47D breast) of 3.49 µM and a TGI (A549 NSCLC) of 25.3 µM. It also gave a TGI (SR leukemia) greater than 25.7 µM and a TGI (NCI/ADR-RES ovarian) of 4.91 µM.
